Measured values: ChEMBL document CHEMBL1129183, “Correlation of oxidation potential and toxicity in thiobenzamides” (Bioorg Med Chem Lett, 1996)

Assay: Lethal dose to rats was determined
Format: toxicity
Settings: rat, in vivo

Row | Structure (SMILES) | Dose [mM/kg]
1 | Cc1ccc(C(N)=S)cc1 | 2
2 | COc1ccc(C(N)=S)cc1 | 2
